Measured values as given in PMC6510822, “Identification of anticancer OATP2B1 substrates by an in vitro triple-fluorescence-based cytotoxicity screen” (Archives of Toxicology, 2019).
Like-named read-outs stand apart in the source and are kept apart here.

Experiments:
[1] = tested on: Mes-Sa-B1 cells (Pgp overexpressing); test: Fluorescence-based cytotoxicity assay, Mes-Sa-B1 mOr; details: for SR (Mes-Sa-B1): selectivity ratio = IC50 parental Mes-Sa / IC50 Mes-Sa-B1
Mes-Sa/Dx5 cells = test: Fluorescence-based cytotoxicity assay, Mes-Sa/Dx5 eGFP; details: triple co-culture screen; for SR (Mes-Sa/DX5): selectivity ratio = IC50 parental Mes-Sa / IC50 Mes-Sa/Dx5; for RR (Dx5): resistance ratio = IC50 Mes-Sa/Dx5 / IC50 parental Mes-Sa
[2] = tested on: A431-2B1 cells (OATP2B1 expressing); test: Fluorescence-based cytotoxicity assay, OATP2B1-expressing A431-2B1 mCh; details: for SR (A431-2B1 vs parental A431), screening of DTP Oncology Set IV: primary screen, co-culture, Fig. 4 inset; for IC50: 9 concentration points, at least 3 replicates
[3] = tested on: A431-B1 cells (ABCB1/P-glycoprotein expressing); test: Fluorescence-based cytotoxicity assay, ABCB1-expressing A431-B1 mCh
[4] = tested on: A431-G2 cells (ABCG2 expressing); test: Fluorescence-based cytotoxicity assay, ABCG2-expressing A431-G2 mOr
OATP2B1 [5] = biological target: T1, OATP2B1 (Homo sapiens, UniProt O94956); test: Inhibition of OATP2B1-mediated Cascade Blue uptake (microplate-based uptake assay, A431-2B1 cells)
T1 sequence (O94956 1-709): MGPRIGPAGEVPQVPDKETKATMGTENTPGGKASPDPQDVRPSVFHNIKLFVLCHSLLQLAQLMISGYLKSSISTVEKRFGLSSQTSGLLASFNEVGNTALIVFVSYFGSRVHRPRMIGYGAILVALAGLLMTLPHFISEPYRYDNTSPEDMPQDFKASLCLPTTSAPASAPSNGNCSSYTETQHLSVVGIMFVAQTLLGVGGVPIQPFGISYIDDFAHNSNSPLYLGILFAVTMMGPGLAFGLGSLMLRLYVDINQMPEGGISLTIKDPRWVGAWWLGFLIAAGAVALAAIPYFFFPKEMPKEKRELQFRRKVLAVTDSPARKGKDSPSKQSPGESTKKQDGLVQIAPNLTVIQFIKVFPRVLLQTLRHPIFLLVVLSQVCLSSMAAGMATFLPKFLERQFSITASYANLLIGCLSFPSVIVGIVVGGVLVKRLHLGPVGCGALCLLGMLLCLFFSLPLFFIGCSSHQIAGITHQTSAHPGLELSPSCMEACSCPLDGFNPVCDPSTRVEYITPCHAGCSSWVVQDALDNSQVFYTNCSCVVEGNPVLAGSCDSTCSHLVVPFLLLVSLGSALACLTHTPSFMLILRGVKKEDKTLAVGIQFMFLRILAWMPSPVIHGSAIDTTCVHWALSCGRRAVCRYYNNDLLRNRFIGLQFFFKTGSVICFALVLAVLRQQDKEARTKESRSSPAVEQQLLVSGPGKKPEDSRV

A431 cells = test: Fluorescence-based cytotoxicity assay, parental A431 eGFP
OATP2B1 [6] = test: Fluorescence-based cytotoxicity assay, OATP2B1-expressing A431-2B1 mCh; details: human
[7] = resistance ratio = IC50 Mes-Sa-B1 / IC50 parental Mes-Sa, triple co-culture screen
[8] = resistance ratio = IC50 A431B1 / IC50 parental A431, triple co-culture screen
[9] = triple co-culture, result in words

`Nc1nc2[nH]cc(CCc3ccc(C(=O)N[C@@H](CCC(=O)O)C(=O)O)cc3)c2c(=O)[nH]1` [NSC-698037, Pemetrexed] was tested, and the “SR (Mes-Sa-B1)” value ([1]; triple co-culture screen) was 1.14 and the “SR (Mes-Sa/DX5)” value (Mes-Sa/Dx5 cells) was 3.29.

`O=c1[nH]c(=O)n([C@H]2C[C@H](O)[C@@H](CO)O2)cc1F` [NSC-27640, Floxuridin] was tested, and the “SR (A431-2B1 vs parental A431), screening of DTP Oncology Set IV” value [2] was 12.31.

For `CC[C@]1(O)C[C@H]2CN(CCc3c([nH]c4ccccc34)[C@@](C(=O)OC)(c3cc4c(cc3OC)N(C=O)[C@H]3[C@@](O)(C(=O)OC)[C@H](OC(C)=O)[C@]5(CC)C=CCN6CC[C@]43[C@@H]65)C2)C1` [NSC-67574, Vincristine], the “RR (Mes-Sa-B1)” value [1, 7] was 38.00, the “RR (Dx5)” value (Mes-Sa/Dx5 cells) was 36.00 and the “RR (A431B1)” value [3, 8] was 56.8.

In the case of `C/C(=C\c1csc(C)n1)[C@@H]1C[C@@H]2O[C@]2(C)CCC[C@H](C)[C@H](O)[C@@H](C)C(=O)C(C)(C)[C@@H](O)CC(=O)N1` [NSC-747973, Ixabepilone], the “RR (Mes-Sa-B1)” value [1] is reported as greater than 208.3, the “RR (Dx5)” value (Mes-Sa/Dx5 cells) is reported as 9.66 and the “RR (A431B1)” value [3] is reported as 23.32.

For `CC[C@@]1(O)C(=O)OCc2c1cc1n(c2=O)Cc2cc3c(CN(C)C)c(O)ccc3nc2-1` [topotecan], the “Effect of ABCG2 expression on toxicity (A431-G2 vs parental A431)” value (“Effect … (A431-G2 vs parental A431)” below) [4, 9] was “conferred resistance”.

With `CC/C(=C(\c1ccccc1)c1ccc(OCCN(C)C)cc1)c1ccccc1` [NSC-180973, Tamoxifen] the “SR, monoculture” value ([2]; IC50 A431 eGFP / IC50 A4312B1 mCh, monoculture) was 0.9, the “SR (A431-2B1 vs parental A431), screening of DTP Oncology Set IV” value [2] was 3.49 and the IC50 (OATP2B1 [5]) was 11 ± 0.7 µM.

In the case of `Cc1c(N)nc([C@H](CC(N)=O)NC[C@H](N)C(N)=O)nc1C(=O)N[C@H](C(=O)N[C@H](C)[C@@H](O)[C@H](C)C(=O)N[C@H](C(=O)NCCc1nc(-c2nc(C(=O)NCCC[S+](C)C)cs2)cs1)[C@@H](C)O)[C@@H](OC1OC(CO)C(O)C(O)C1OC1OC(CO)C(O)C(OC(N)=O)C1O)c1cnc[nH]1` (stereo partly shown) [NSC-125066, Bleomycin], the “SR (Mes-Sa/DX5)” value (Mes-Sa/Dx5 cells) is reported as 57.8, the IC50 (A431 cells; read-out: IC50 (µM) A431 eGFP, co-culture, co-culture with A431-2B1 mCh, 9 concentration points, at least 3 replicates) is reported as 7.47 µM and the IC50 (A431 cells; read-out: IC50 (µM) A431 eGFP, monoculture, 9 concentration points, at least 3 replicates) is reported as 16.3 µM. For the same compound, the IC50 ([2]; read-out: IC50 (µM) A4312B1 mCh, co-culture, co-culture with A431 eGFP) was 0.83 µM, the IC50 ([2]; read-out: IC50 (µM) A4312B1 mCh, monoculture) was 1.5 µM and the IC50 (OATP2B1 [5]; read-out: IC50, inhibition of OATP2B1-mediated Cascade Blue (CB) uptake, CB 10 µM, 30 min, average ± SD) was 64.2 ± 6.1 µM.

`Nc1ccn([C@@H]2O[C@H](CO)[C@@H](O)C2(F)F)c(=O)n1` [NSC-613327, Gemcitabine] was tested, and the “SR (A431-2B1 vs parental A431), screening of DTP Oncology Set IV” value [2] was 16.5.

For `CCc1c2c(nc3ccc(OC(=O)N4CCC(N5CCCCC5)CC4)cc13)-c1cc3c(c(=O)n1C2)COC(=O)[C@]3(O)CC` [NSC-616348, Irinotecan], the IC50 (A431 cells; Homo sapiens, A-431, read-out: IC50 (µM) A431 eGFP, co-culture) was 13.8 µM, the IC50 (A431 cells; Homo sapiens, A-431, read-out: IC50 (µM) A431 eGFP, monoculture) was 11.1 µM and the “Effect … (A431-G2 vs parental A431)” value [4] was “conferred resistance”. It also gave an IC50 at […] (OATP2B1 [6]) of […] and an IC50 at […] (OATP2B1 [6]; A431-2B1 mCherry cells (OATP2B1-expressing), monoculture) of […].

With `COc1cc2ncnc(Nc3ccc(F)c(Cl)c3)c2cc1OCCCN1CCOCC1` [gefitinib] the “Effect … (A431-G2 vs parental A431)” value [4, 9] was “conferred resistance”.

`S=c1[nH]cnc2nc[nH]c12` [NSC-755, Mercaptopurine] was tested, and the “SR (Mes-Sa-B1)” value ([1]; triple co-culture screen) was 0.39, the “SR (Mes-Sa/DX5)” value (Mes-Sa/Dx5 cells) was 3.87 and the “Effect … (A431-G2 vs parental A431)” value [4, 9] was “conferred resistance”.

`Cc1nc(Nc2ncc(C(=O)Nc3c(C)cccc3Cl)s2)cc(N2CCN(CCO)CC2)n1` [NSC-732517, Dasatinib] was tested, and the “RR (Mes-Sa-B1)” value [1, 7] was 3.147, the “RR (Dx5)” value (Mes-Sa/Dx5 cells) was greater than 3.60 and the “RR (A431B1)” value [3] was 11.5. For the same compound, the “Effect … (A431-G2 vs parental A431)” value [4] was “conferred resistance”.

`CC(C)C[C@H](NC(=O)[C@H](CCc1ccccc1)NC(=O)CN1CCOCC1)C(=O)N[C@@H](Cc1ccccc1)C(=O)N[C@@H](CC(C)C)C(=O)[C@@]1(C)CO1` [NSC-758252, Carfilzomib] was tested, and the “RR (Mes-Sa-B1)” value [1, 7] was 55.50, the “RR (Dx5)” value (Mes-Sa/Dx5 cells) was 88.00 and the “RR (A431B1)” value [3, 8] was 47.4.

For `CS(=O)(=O)CCNCc1ccc(-c2ccc3ncnc(Nc4ccc(OCc5cccc(F)c5)c(Cl)c4)c3c2)o1` [lapatinib], the “Effect … (A431-G2 vs parental A431)” value [4, 9] was “conferred resistance”.
